From PubChem BioAssay (NCI)
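Here, GI50 denotes the concentration required for 50% inhibition of growth. The concentration for full growth arrest is given as TGI.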

What was measured:
Experiment in all cases: NCI-60 cell line screen, 384-well format
K-562 leukemia = system: K-562 leukemia
PC-3 prostate = system: PC-3 prostate
SF-295 CNS = system: SF-295 CNS
SK-MEL-5 melanoma = system: SK-MEL-5 melanoma
SN12C renal = system: SN12C renal
HOP-92 NSCLC = system: HOP-92 NSCLC
DU-145 prostate = system: DU-145 prostate
U251 glioblastoma = system: U251 glioblastoma
A549 NSCLC = system: A549 NSCLC
HT29 colon = system: HT29 colon
CAKI-1 renal = system: CAKI-1 renal
HCT-15 colon = system: HCT-15 colon
LOX IMVI melanoma = system: LOX IMVI melanoma
CCRF-CEM leukemia = system: CCRF-CEM leukemia
MOLT-4 leukemia = system: MOLT-4 leukemia
MDA-MB-231 breast = system: MDA-MB-231 breast
SR leukemia = system: SR leukemia
UACC-62 melanoma = system: UACC-62 melanoma
HOP-62 NSCLC = system: HOP-62 NSCLC
SF-539 CNS = system: SF-539 CNS
NCI-H460 NSCLC = system: NCI-H460 NSCLC
A498 renal = system: A498 renal
OVCAR-8 ovarian = system: OVCAR-8 ovarian
786-0 renal = system: 786-0 renal
OVCAR-4 ovarian = system: OVCAR-4 ovarian
NCI-H226 lung = system: NCI-H226 lung
M14 melanoma = system: M14 melanoma
T-47D breast = system: T-47D breast
IGROV1 ovarian = system: IGROV1 ovarian
HCC-2998 colon = system: HCC-2998 colon
ACHN renal = system: ACHN renal
SK-OV-3 ovarian = system: SK-OV-3 ovarian
SK-MEL-28 melanoma = system: SK-MEL-28 melanoma
NCI-H322M lung = system: NCI-H322M lung
UACC-257 melanoma = system: UACC-257 melanoma
NCI-H522 lung = system: NCI-H522 lung
MDA-MB-435 melanoma = system: MDA-MB-435 melanoma
OVCAR-5 ovarian = system: OVCAR-5 ovarian
BT-549 breast = system: BT-549 breast
RPMI-8226 leukemia = system: RPMI-8226 leukemia
SW-620 colon = system: SW-620 colon
HCT-116 colon = system: HCT-116 colon
HL-60(TB) leukemia = system: HL-60(TB) leukemia
RXF 393 renal = system: RXF 393 renal
MDA-MB-468 breast = system: MDA-MB-468 breast
KM12 colon = system: KM12 colon
COLO 205 colon = system: COLO 205 colon
MALME-3M melanoma = system: MALME-3M melanoma
MCF7 breast = system: MCF7 breast
TK-10 renal = system: TK-10 renal
SK-MEL-2 melanoma = system: SK-MEL-2 melanoma
SNB-19 CNS = system: SNB-19 CNS
SF-268 CNS = system: SF-268 CNS
UO-31 renal = system: UO-31 renal
OVCAR-3 ovarian = system: OVCAR-3 ovarian
NCI-H23 lung = system: NCI-H23 lung
NCI/ADR-RES ovarian = system: NCI/ADR-RES ovarian

SMILES: Cc1cc2c(C(=O)NC[C@H](C)c3ccccc3)c(O)c(O)cc2c(O)c1-c1c(C)cc2c(C(=O)NC[C@H](C)c3ccccc3)c(O)c(O)cc2c1O
- GI50 (K-562 leukemia): 0.328 µM
- TGI (K-562 leukemia): 1.21 µM
- GI50 (PC-3 prostate): 1.37 µM
- TGI (PC-3 prostate): 2.75 µM
- GI50 (SF-295 CNS): 0.345 µM
- TGI (SF-295 CNS): 1.12 µM
- GI50 (SK-MEL-5 melanoma): 0.378 µM
- TGI (SK-MEL-5 melanoma): 1.58 µM
- GI50 (SN12C renal): 0.837 µM
- TGI (SN12C renal): 2.3 µM
- GI50 (HOP-92 NSCLC): 0.461 µM
- TGI (HOP-92 NSCLC): 1.56 µM
- GI50 (DU-145 prostate): 0.382 µM
- TGI (DU-145 prostate): 1.98 µM
- GI50 (U251 glioblastoma): 0.281 µM
- TGI (U251 glioblastoma): 0.723 µM
- GI50 (A549 NSCLC): 0.348 µM
- TGI (A549 NSCLC): 1.39 µM
- GI50 (HT29 colon): 1.23 µM
- TGI (HT29 colon): 3.83 µM
- GI50 (CAKI-1 renal): 0.657 µM
- TGI (CAKI-1 renal): 2.5 µM
- GI50 (HCT-15 colon): 0.545 µM
- TGI (HCT-15 colon): 2.88 µM
- GI50 (LOX IMVI melanoma): 1.74 µM
- TGI (LOX IMVI melanoma): 3.27 µM
- GI50 (CCRF-CEM leukemia): 0.243 µM
- TGI (CCRF-CEM leukemia): 0.514 µM
- GI50 (MOLT-4 leukemia): 0.218 µM
- TGI (MOLT-4 leukemia): 0.404 µM
- GI50 (MDA-MB-231 breast): 0.654 µM
- TGI (MDA-MB-231 breast): 2.39 µM
- GI50 (SR leukemia): 0.196 µM
- TGI (SR leukemia): 0.369 µM
- GI50 (UACC-62 melanoma): 0.486 µM
- TGI (UACC-62 melanoma): 1.63 µM
- GI50 (HOP-62 NSCLC): 0.666 µM
- TGI (HOP-62 NSCLC): 2.09 µM
- GI50 (SF-539 CNS): 0.233 µM
- TGI (SF-539 CNS): 0.579 µM
- GI50 (NCI-H460 NSCLC): 0.204 µM
- TGI (NCI-H460 NSCLC): 0.424 µM
- GI50 (A498 renal): 0.286 µM
- TGI (A498 renal): 0.818 µM
- GI50 (OVCAR-8 ovarian): 1.12 µM
- TGI (OVCAR-8 ovarian): 2.49 µM
- GI50 ([…]-0 renal): 1.17 µM
- TGI (786-0 renal): 2.8 µM
- GI50 (OVCAR-4 ovarian): 0.935 µM
- TGI (OVCAR-4 ovarian): 4.46 µM
- GI50 (NCI-H226 lung): 1.13 µM
- TGI (NCI-H226 lung): 2.6 µM
- GI50 (M14 melanoma): 0.394 µM
- TGI (M14 melanoma): 1.36 µM
- GI50 (T-47D breast): 0.382 µM
- TGI (T-47D breast): 1.59 µM
- GI50 (IGROV1 ovarian): 0.495 µM
- TGI (IGROV1 ovarian): 2.92 µM
- GI50 (HCC-2998 colon): 1.38 µM
- TGI (HCC-2998 colon): 3.2 µM
- GI50 (ACHN renal): 1.84 µM
- TGI (ACHN renal): 4.04 µM
- GI50 (SK-OV-3 ovarian): 1.5 µM
- TGI (SK-OV-3 ovarian): 3.9 µM
- GI50 (SK-MEL-28 melanoma): 0.606 µM
- TGI (SK-MEL-28 melanoma): 2.4 µM
- GI50 (NCI-H322M lung): 1.76 µM
- TGI (NCI-H322M lung): 8.77 µM
- GI50 (UACC-257 melanoma): 1.61 µM
- TGI (UACC-257 melanoma): 3.57 µM
- GI50 (NCI-H522 lung): 0.207 µM
- TGI (NCI-H522 lung): 0.396 µM
- GI50 (MDA-MB-435 melanoma): 0.54 µM
- TGI (MDA-MB-435 melanoma): 2.7 µM
- GI50 (OVCAR-5 ovarian): 0.558 µM
- TGI (OVCAR-5 ovarian): 1.98 µM
- GI50 (BT-549 breast): 0.243 µM
- TGI (BT-549 breast): 0.582 µM
- GI50 (RPMI-8226 leukemia): 0.238 µM
- TGI (RPMI-8226 leukemia): 0.447 µM
- GI50 (SW-620 colon): 1.48 µM
- TGI (SW-620 colon): 3.62 µM
- GI50 (HCT-116 colon): 0.274 µM
- TGI (HCT-116 colon): 0.685 µM
- GI50 (HL-60(TB) leukemia): 0.487 µM
- TGI (HL-60(TB) leukemia): 1.39 µM
- GI50 (RXF 393 renal): 0.201 µM
- TGI (RXF 393 renal): 0.625 µM
- GI50 (MDA-MB-468 breast): 0.187 µM
- TGI (MDA-MB-468 breast): 0.374 µM
- GI50 (KM12 colon): 0.39 µM
- TGI (KM12 colon): 1.36 µM
- GI50 (COLO 205 colon): 1.94 µM
- TGI (COLO 205 colon): 4.29 µM
- GI50 (MALME-3M melanoma): 1.59 µM
- TGI (MALME-3M melanoma): 4.43 µM
- GI50 (MCF7 breast): 0.309 µM
- TGI (MCF7 breast): 1.18 µM
- GI50 (TK-10 renal): 1.28 µM
- TGI (TK-10 renal): 7.08 µM
- GI50 (SK-MEL-2 melanoma): 0.24 µM
- TGI (SK-MEL-2 melanoma): 1.03 µM
- GI50 (SNB-19 CNS): 0.413 µM
- TGI (SNB-19 CNS): 1.44 µM
- GI50 (SF-268 CNS): 0.523 µM
- TGI (SF-268 CNS): 1.81 µM
- GI50 (UO-31 renal): 1.22 µM
- TGI (UO-31 renal): 2.94 µM
- GI50 (OVCAR-3 ovarian): 0.613 µM
- TGI (OVCAR-3 ovarian): 2.08 µM
- GI50 (NCI-H23 lung): 0.229 µM
- TGI (NCI-H23 lung): 0.448 µM
- GI50 (NCI/ADR-RES ovarian): 2.15 µM
- TGI (NCI/ADR-RES ovarian): 5.33 µM
